Data set [1] has as its system tumor growth. To be noted: cited from earlier work.
Data set [2] has as its system Encephalitozoan intestinalis. The note with it: cited from earlier work.
Data set [3] has as its system Japanese encephalitis. The note with it: flavivirus infection; cited from earlier work.
Data set [4] concerns VEGF production in human cancer cell lines. Description: VEGF production in human cancer cell lines (ELISA). Format: cell-based. As to the method: (A) Effect of SNS on VEGF production was analyzed in two cancer cell lines (both supernatants and cell lysates). (B) The supernatant from control and drug treated H460 cells was analyzed for the level of VEGF (pg/ml). C. […] Statistical analyses were performed using one-way ANOVA.
As discussed above, SNS and pancratastatin were originally synthesized as an anti-cancer agent. The inventors also examined the effect of SNS and pancratastatin on the production of VEGF in human cancer cell lines (FIG. 2). […] This analysis had been performed at least 3-5 times depending on the cell lines and drug used, with statistical analysis performed using one-way ANOVA.

The conditions of data set [5]: healthy mice; cited from earlier work.
Data set [6] relates to TNF-α production by macrophages. To be noted: LPS- or bacteria-induced; cited from earlier work.
The subject of data set [7] is arthritic rats. The note with it: cited from earlier work.

Here are results for 2 compounds from patent publication US20050261246A1, “Methods for treating inflammatory and autoimmune diseases” (priority 2004, published 2005).

The structures appear in SMILES notation.

As for `O=C1N[C@H]2[C@H](O)[C@H](O)[C@@H](O)[C@H](O)[C@@H]2c2cc3c(c(O)c21)OCO3` [pancratistatin], the “potency in inhibiting tumor growth relative to SNS” value in data set [1] is recorded as “more potent than SNS in inhibiting tumor growth”. For the same compound, in data set [2], the “activity against the parasite” value is “activity against the parasite Encephalitozoan intestinalis”. The survival rate result in data set [3] is reported as “up to 100%”. In data set [4], the “VEGF production, narcistatin compared with pancratistatin” value is given as “comparable inhibition on VEGF production”. The “effect on VEGF production/secretion” value in data set [4] (human cancer cell lines, ELISA) is recorded as “inhibitory effect”.
Consider `O=C1N[C@@H]2C(=C[C@H](O)[C@@H](O)[C@H]2O)c2cc3c(c(O)c21)OCO3` [narciclasine], for which the growth rate result in data set [5] is “inhibits the growth rate of healthy mice”. Besides, the “TNF-α production by macrophages” value in data set [6] was “inhibits lipopolysaccharide (LPS)- or bacteria-induced production of TNF-α by macrophages”. Moreover, the “footpad volumes, severe chronic inflammation” value in data set [7] (day 21 post-CFA challenge, treated vs untreated arthritic rats) is reported as “no differences in their footpad volumes”. Besides, the “inflammation, acute phase” value in data set [7] (given from the time of CFA challenge, day 14 post-CFA challenge) is “able to inhibit inflammation during the acute inflammatory phase”.
